Legend:
Assay type in all cases: in vivo
[1] = tested on: barnyardgrass (Echinochloa crus-galli); experiment: Test A preemergence, directed soil spray, visual injury rating; settings: Echinochloa crus-galli, pre-emergence, 240 h, 0 is no effect, 100 is complete control, read-out: Plant response rating (0 to 100 scale), Barnyardgrass; for pest or weed control at 125 g/ha: 125 g ai/ha; for pest or weed control at 500 g/ha: 500 g ai/ha
Outline: (§1)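 Seeds sown in a loam soil–sand blend received a directed preemergence soil spray of test chemical in a non-phytotoxic solvent mixture with surfactant. Postemergence plants were sprayed at 2 to 10 cm, one- to two-leaf stage. After approximately 10 d in greenhouse, injury was visually rated 0 (no effect) to 100 (complete control) against untreated controls.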

[2] = tested on: foxtail, giant (giant foxtail, Setaria faberii); experiment: as above; settings: Setaria faberi, pre-emergence, 240 h, 0 is no effect, 100 is complete control, read-out: Plant response rating (0 to 100 scale), Foxtail, Giant; for pest or weed control at 125 g/ha: 125 g ai/ha; for pest or weed control at 500 g/ha: 500 g ai/ha
Outline: as §1

kochia (Kochia scoparia) [3] = experiment: as above; settings: Bassia scoparia, pre-emergence, 240 h, 0 is no effect, 100 is complete control, read-out: Plant response rating (0 to 100 scale), Kochia; for pest or weed control at 125 g/ha: 125 g ai/ha; for pest or weed control at 500 g/ha: 500 g ai/ha
Outline: as §1

[4] = tested on: pigweed (Amaranthus retroflexus); experiment: as above; settings: Amaranthus retroflexus, pre-emergence, 240 h, 0 is no effect, 100 is complete control, read-out: Plant response rating (0 to 100 scale), Pigweed; for pest or weed control at 125 g/ha: 125 g ai/ha; for pest or weed control at 500 g/ha: 500 g ai/ha
Outline: as §1

[5] = tested on: ragweed (common ragweed, Ambrosia elatior); experiment: as above; settings: Ambrosia artemisiifolia, pre-emergence, 240 h, 0 is no effect, 100 is complete control, read-out: Plant response rating (0 to 100 scale), Ragweed; for pest or weed control at 125 g/ha: 125 g ai/ha; for pest or weed control at 500 g/ha: 500 g ai/ha
Outline: as §1

[6] = tested on: ryegrass, It. (Italian ryegrass, Lolium multiflorum); experiment: as above; settings: Lolium multiflorum, pre-emergence, 240 h, 0 is no effect, 100 is complete control, read-out: Plant response rating (0 to 100 scale), Ryegrass, It.; for pest or weed control at 125 g/ha: 125 g ai/ha; for pest or weed control at 500 g/ha: 500 g ai/ha
Outline: as §1

[7] = tested on: barnyardgrass (Echinochloa crus-galli); experiment: Test B flooded paddy test, visual rating; settings: Echinochloa crus-galli, 360 h; Flood, 250 g ai/ha, applied to paddy water, rated after 13 to 15 d; read-out: Barnyardgrass plant response rating (0 to 100 scale, 0 is no effect, 100 is complete control)
Outline: (§2)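 Plants at the 2-leaf stage were flooded to 3 cm above soil, and test compounds were applied directly into the paddy water, which was held at that depth throughout. After 13 to 15 d in a greenhouse, injury was rated visually against untreated controls on a 0–100 scale (0 no effect, 100 complete control).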

[8] = tested on: ducksalad (Heteranthera limosa); experiment: Test B flooded paddy test, visual rating; settings: Heteranthera limosa, 360 h; Flood, 250 g ai/ha, applied to paddy water, rated after 13 to 15 d; read-out: Ducksalad plant response rating (0 to 100 scale, 0 is no effect, 100 is complete control)
Outline: as §2

rice (Oryza sativa) = experiment: Test B flooded paddy test, visual rating; settings: Oryza sativa, 360 h; Flood, 250 g ai/ha, applied to paddy water, rated after 13 to 15 d; read-out: Rice plant response rating (0 to 100 scale, 0 is no effect, 100 is complete control)
Outline: as §2

[9] = tested on: barnyardgrass (Echinochloa crus-galli); experiment: Test A postemergence application, visual injury rating; settings: Echinochloa crus-galli, post-emergence, 240 h, 0 to 100 scale, 0 no effect, 100 complete control, read-out: Barnyardgrass plant response rating; for pest or weed control at 125 g/ha: 125 g ai/ha; for pest or weed control at 500 g/ha: 500 g ai/ha
Outline: as §1

[10] = tested on: blackgrass (Alopecurus myosuroides); experiment: as above; settings: Alopecurus myosuroides, post-emergence, 240 h, 0 to 100 scale, 0 no effect, 100 complete control, read-out: Blackgrass plant response rating; for pest or weed control at 125 g/ha: 125 g ai/ha; for pest or weed control at 500 g/ha: 500 g ai/ha
Outline: as §1

corn (Zea mays) = experiment: as above; settings: Zea mays, post-emergence, 240 h, 0 to 100 scale, 0 no effect, 100 complete control, read-out: Corn plant response rating; for plant injury at 125 g/ha: 125 g ai/ha; for plant injury at 500 g/ha: 500 g ai/ha
Outline: as §1

[11] = tested on: foxtail, giant (giant foxtail, Setaria faberii); experiment: as above; settings: Setaria faberi, post-emergence, 240 h, 0 to 100 scale, 0 no effect, 100 complete control, read-out: Foxtail, Giant plant response rating; for pest or weed control at 125 g/ha: 125 g ai/ha; for pest or weed control at 500 g/ha: 500 g ai/ha
Outline: as §1

[12] = tested on: galium (catchweed bedstraw, Galium aparine); experiment: as above; settings: Galium, post-emergence, 240 h, 0 to 100 scale, 0 no effect, 100 complete control, read-out: Galium plant response rating; for pest or weed control at 125 g/ha: 125 g ai/ha; for pest or weed control at 500 g/ha: 500 g ai/ha
Outline: as §1

kochia (Kochia scoparia) [13] = experiment: as above; settings: Bassia scoparia, post-emergence, 240 h, 0 to 100 scale, 0 no effect, 100 complete control, read-out: Kochia plant response rating; for pest or weed control at 125 g/ha: 125 g ai/ha; for pest or weed control at 500 g/ha: 500 g ai/ha
Outline: as §1

[14] = tested on: pigweed (Amaranthus retroflexus); experiment: as above; settings: Amaranthus retroflexus, post-emergence, 240 h, 0 to 100 scale, 0 no effect, 100 complete control, read-out: Pigweed plant response rating; for pest or weed control at 125 g/ha: 125 g ai/ha; for pest or weed control at 500 g/ha: 500 g ai/ha
Outline: as §1

[15] = tested on: ragweed (common ragweed, Ambrosia elatior); experiment: as above; settings: Ambrosia artemisiifolia, post-emergence, 240 h, 0 to 100 scale, 0 no effect, 100 complete control, read-out: Ragweed plant response rating; for pest or weed control at 125 g/ha: 125 g ai/ha; for pest or weed control at 500 g/ha: 500 g ai/ha
Outline: as §1

[16] = tested on: ryegrass, It. (Italian ryegrass, Lolium multiflorum); experiment: as above; settings: Lolium multiflorum, post-emergence, 240 h, 0 to 100 scale, 0 no effect, 100 complete control, read-out: Ryegrass, It. plant response rating; for pest or weed control at 125 g/ha: 125 g ai/ha; for pest or weed control at 500 g/ha: 500 g ai/ha
Outline: as §1

[17] = tested on: wheat (Triticum aestivum); experiment: as above; settings: Triticum aestivum, post-emergence, 240 h, 0 to 100 scale, 0 no effect, 100 complete control, read-out: Wheat plant response rating; for plant injury at 125 g/ha: 125 g ai/ha; for plant injury at 500 g/ha: 500 g ai/ha
Outline: as §1

Compound	pest or weed control at 125 g/ha [1] [%]	pest or weed control at 500 g/ha [1] [%]	pest or weed control at 125 g/ha [2] [%]	pest or weed control at 500 g/ha [2] [%]	pest or weed control at 125 g/ha (kochia (Kochia scoparia) [3]) [%]	pest or weed control at 500 g/ha (kochia (Kochia scoparia) [3]) [%]	pest or weed control at 125 g/ha [4] [%]	pest or weed control at 500 g/ha [4] [%]	pest or weed control at 125 g/ha [5] [%]	pest or weed control at 500 g/ha [5] [%]	pest or weed control at 125 g/ha [6] [%]	pest or weed control at 500 g/ha [6] [%]	pest or weed control at 125 g/ha [9] [%]	pest or weed control at 500 g/ha [9] [%]	pest or weed control at 125 g/ha [10] [%]	pest or weed control at 500 g/ha [10] [%]	plant injury at 125 g/ha (corn (Zea mays)) [%]	plant injury at 500 g/ha (corn (Zea mays)) [%]	pest or weed control at 125 g/ha [11] [%]	pest or weed control at 500 g/ha [11] [%]	other results
Cc1cc2ccc(C)c(-c3c(O)c(C)nn(C)c3=O)c2o1 [Compound 10, 4-(2,6-dimethyl-7-benzofuranyl)-5-hydroxy-2,6-dimethyl-3(2H)-pyridazinone]	80	90	80	100	100	100	100	100	90	90	100	100	50	90	60	90	10	30	80	90	pest or weed control at 250 g/ha [7]: 0%; pest or weed control at 250 g/ha [8]: 0%; plant injury at 250 g/ha (rice (Oryza sativa)): 0%; pest or weed control at 125 g/ha [12]: 100%; pest or weed control at 500 g/ha [12]: 100%; pest or weed control at 125 g/ha (kochia (Kochia scoparia) [13]): 100%; pest or weed control at 500 g/ha (kochia (Kochia scoparia) [13]): 100%; pest or weed control at 125 g/ha [14]: 90%; pest or weed control at 500 g/ha [14]: 100%; pest or weed control at 125 g/ha [15]: 100%; pest or weed control at 500 g/ha [15]: 100%; pest or weed control at 125 g/ha [16]: 100%; pest or weed control at 500 g/ha [16]: 100%; plant injury at 125 g/ha [17]: 20%; plant injury at 500 g/ha [17]: 60%
CC(=O)Oc1c(C)nn(C)c(=O)c1-c1cccc2cc(C)oc12 [Compound 13, 5-(acetyloxy)-2,6-dimethyl-4-(2-methyl-7-benzofuranyl)-3 (2H)-pyridazinone]	20	60	10	60	0	100	40	100	40	80	100	100	0	50	60	80	0	20	30	50	pest or weed control at 125 g/ha [12]: 80%; pest or weed control at 500 g/ha [12]: 90%; pest or weed control at 125 g/ha (kochia (Kochia scoparia) [13]): 50%; pest or weed control at 500 g/ha (kochia (Kochia scoparia) [13]): 80%; pest or weed control at 125 g/ha [14]: 60%; pest or weed control at 500 g/ha [14]: 70%; pest or weed control at 125 g/ha [15]: 50%; pest or weed control at 500 g/ha [15]: 70%; pest or weed control at 125 g/ha [16]: 90%; pest or weed control at 500 g/ha [16]: 100%; plant injury at 125 g/ha [17]: 0%; plant injury at 500 g/ha [17]: 20%

From US10750743B2, “Pyridazinone herbicides” (E.I. DU PONT DE NEMOURS AND COMPANY, priority 2015, dated 2020)
